Data set [1] in a line: Log P by HPLC on reversed phase columns (EEC directive 79/831 Annex V.A8). As to conditions: [a] LC-UV, acidic range, 0.1% formic acid in water and acetonitrile as eluent. The class given is physicochemical. How it is done: Measurement of Log P values was performed according to EEC directive 79/831 Annex V.A8 by HPLC (High Performance Liquid Chromatography) on reversed phase columns with the following methods: [a] Log P value is determined by measurement of LC-UV, in an acidic range, with 0.1% formic acid in water and acetonitrile as eluent (linear gradient from 10% acetonitrile to 95% acetonitrile). [b] Log P value is determined by measurement of LC-UV, in a neutral range, with 0.001 molar ammonium acetate solution in water and acetonitrile as eluent (linear gradient from 10% acetonitrile to 95% acetonitrile). Calibration was done with straight-chain alkan2-ones (with 3 to 16 carbon atoms) with known Log P values (measurement of Log P values using retention times with linear interpolation between successive alkanones). Lambda-max-values were determined using UV-spectra from 200 nm to 400 nm and the peak values of the chromatographic signals.

In the next data set the test system is Puccinia recondita. The experiment in a line: In vivo preventive test on Puccinia recondita (brown rust on wheat). As to conditions: 10 ppm of active ingredient; wheat plants, preventive spray, evaluated 11 days after inoculation. On the procedure: (§1) Example: In Vivo Preventive Test on Puccinia recondita (Brown Rust on Wheat) [table] The active ingredients are made soluble and homogenized in a mixture of Dimethyl sulfoxide/Acetone/Tween® 80 and then diluted in water to the desired concentration. The young plants of wheat are treated by spraying the active ingredient prepared as described above. Control plants are treated only with an aqueous solution of Acetone/Dimethyl sulfoxide/Tween® 80. After 24 hours, the plants are contaminated by spraying the leaves with an aqueous suspension of Puccinia recondita spores. The contaminated wheat plants are incubated for 24 hours at 20° C. and at 100% relative humidity and then for 10 days at 20° C. and at 70-80% relative humidity. The test is evaluated 11 days after the inoculation. 0% means an efficacy which corresponds to that of the control plants while an efficacy of 100% means that no disease is observed.

The next data set concerns Uromyces appendiculatus. The experiment in a line: In vivo preventive test on Uromyces appendiculatus (bean rust). The following applies: 500 ppm of active ingredient; bean plants, preventive spray, evaluated 11 days after inoculation. On the procedure:
as §1, with “Uromyces appendiculatus (Bean Rust)” for “Puccinia recondita (Brown Rust on Wheat)”, “bean” for “wheat”, “Uromyces appendiculatus” for “Puccinia recondita”

Here are results for 5 compounds from patent publication US20190023658A1, “SUBSTITUTED 2-DIFLUOROMETHYL-NICOTIN(THIO)CARBOXANILIDE DERIVATIVES AND THEIR USE AS FUNGICIDES” (Bayer CropScience Aktiengesellschaft, priority 2015, published 2019).

Regarding `O=C(Nc1ccccc1Oc1cccc(Cl)c1)c1cccnc1C(F)F` [Example I-06], in data set [1], the LogP was 3.29^[a]. In addition, in the data set on Puccinia recondita, the efficacy entry is “at least 70%”.
For `O=C(Nc1ccc(F)cc1-c1ccc(Cl)c(Cl)c1)c1c(C(F)F)ccnc1C(F)F` [Example I-31], the efficacy entry in the data set with Uromyces appendiculatus is “at least 70%”. Also, the LogP in data set [1] is 3.96^[a].
As to `COC(=N)c1c(F)cc(-c2cccc(F)c2NC(=S)c2cccnc2C(F)F)cc1F` [Example I-74], in data set [1], the LogP is 3.60^[a].
Take `CCON=Cc1c(F)cc(-c2ccccc2NC(=S)c2cccnc2C(F)F)cc1F` [Example I-75]: the LogP in data set [1] is 3.92^[a].
The same measure, in the same setting: the value for `CON=Cc1c(F)cc(-c2ccccc2NC(=S)c2cccnc2C(F)F)cc1F` [Example I-76] was 3.55^[a].
